Measurements published in patent US20210322382A1, “METHODS AND COMPOSITIONS FOR IMPROVED TREATMENT OF SINUS DISEASE” (Veloce BioPharma LLC, priority 2020, published 2021).

Tests used:
[1] = Stability of PVP-I solutions, USP method; type: physicochemical; conditions: aprotic DMSO solvent system, long periods of time
Excerpt: It is known that PVP-I aqueous solutions are difficult to stabilize at low concentrations over a long time. At concentrations less than about 0.7% PVP-I (w/w, aqueous), PVP-I aqueous solutions rapidly decay to yield complex mixtures of iodinated and iodine-free constituents. […] It is of additional novelty that even in the hydrated DMSO solutions prepared from aqueous PVP-I, increased stability is observed for the PVP-I component.

[2] = aqueous solution; stated as known; cited from earlier work
[3] = stated as known drawback of PVP-I; cited from earlier work

## povidone-iodine [PVP-I]
[1]
  lowest PVP-I concentration prepared and maintained as stable composition: 0.1%
[2]
  PVP-I concentration below which aqueous solutions rapidly decay: less than 0.7 % (w/w, aqueous)
[3]
  PVP-I concentration above which toxic to the sinuses: above 2.2 % w/w
